According to patent publication US6858638B2, “Substituted indazoles, compositions containing them, method of production and use” (Aventis Pharma S.A., priority 2002, dated 2005):

What was measured:
Format in all cases: biochemical
[1] = target: T1, human FAK (Homo sapiens, UniProt Q05397); assay: FAK autophosphorylation inhibition, time resolved fluorescence (HTRF) assay; conditions: 10 μM (values without asterisk); read-out: FAK % inhib at 10 μM
T1 construct: The complete cDNA of human FAK; made in house; host or cells: baculovirus expression system (vector pFastBac HTc)
T1 sequence (Q05397 whole entry): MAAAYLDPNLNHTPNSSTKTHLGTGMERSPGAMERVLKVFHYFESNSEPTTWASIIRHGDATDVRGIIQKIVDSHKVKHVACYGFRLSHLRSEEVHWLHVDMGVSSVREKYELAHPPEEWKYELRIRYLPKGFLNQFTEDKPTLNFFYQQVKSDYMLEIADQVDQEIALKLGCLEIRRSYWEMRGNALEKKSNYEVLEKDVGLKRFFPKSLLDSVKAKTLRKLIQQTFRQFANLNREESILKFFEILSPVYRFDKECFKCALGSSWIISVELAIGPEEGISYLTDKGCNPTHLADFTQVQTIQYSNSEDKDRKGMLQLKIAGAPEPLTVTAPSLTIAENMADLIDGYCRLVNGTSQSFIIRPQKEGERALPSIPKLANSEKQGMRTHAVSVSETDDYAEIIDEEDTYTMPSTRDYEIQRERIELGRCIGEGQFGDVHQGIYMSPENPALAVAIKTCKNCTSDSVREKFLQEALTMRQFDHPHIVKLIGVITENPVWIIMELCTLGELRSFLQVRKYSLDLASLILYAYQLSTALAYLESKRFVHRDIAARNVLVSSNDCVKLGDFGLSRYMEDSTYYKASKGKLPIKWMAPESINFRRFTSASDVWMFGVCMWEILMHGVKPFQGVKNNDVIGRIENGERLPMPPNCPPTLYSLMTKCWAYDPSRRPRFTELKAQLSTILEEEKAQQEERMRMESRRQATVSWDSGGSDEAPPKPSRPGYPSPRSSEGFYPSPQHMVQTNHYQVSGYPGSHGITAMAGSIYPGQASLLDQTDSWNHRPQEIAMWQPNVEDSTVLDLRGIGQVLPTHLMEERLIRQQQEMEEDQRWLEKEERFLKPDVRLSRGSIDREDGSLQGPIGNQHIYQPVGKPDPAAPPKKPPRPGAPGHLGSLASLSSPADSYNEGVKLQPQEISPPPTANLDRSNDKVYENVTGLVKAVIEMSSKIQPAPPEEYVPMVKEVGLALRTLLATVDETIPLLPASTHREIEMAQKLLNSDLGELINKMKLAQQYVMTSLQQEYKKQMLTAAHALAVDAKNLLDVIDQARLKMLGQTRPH
How it was run: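 His-tagged full-length human FAK from baculovirus (6.6 µg/ml) self-phosphorylates with 15 µM ATP in HEPES pH 7.2, MgCl2, vanadate, 1 h at 37 °C. HTRF detection (Eu-anti-phosphotyrosine / XL665-anti-His), 665/620 nm ratio; % inhibition vs untreated control, duplicate mean.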

[2] = target: T2, Aurora2 kinase (Homo sapiens, UniProt O14965); assay: Aurora2 kinase radioactivity scintillation assay using nickel chelate (NuMA substrate); conditions: 10 μM; read-out: Aurora2 % inhib at 10 μM
T2 construct: A complete recombinant Aurora2 enzyme; His tag (N); made in house; host or cells: E. coli
T2 sequence (O14965 1-403): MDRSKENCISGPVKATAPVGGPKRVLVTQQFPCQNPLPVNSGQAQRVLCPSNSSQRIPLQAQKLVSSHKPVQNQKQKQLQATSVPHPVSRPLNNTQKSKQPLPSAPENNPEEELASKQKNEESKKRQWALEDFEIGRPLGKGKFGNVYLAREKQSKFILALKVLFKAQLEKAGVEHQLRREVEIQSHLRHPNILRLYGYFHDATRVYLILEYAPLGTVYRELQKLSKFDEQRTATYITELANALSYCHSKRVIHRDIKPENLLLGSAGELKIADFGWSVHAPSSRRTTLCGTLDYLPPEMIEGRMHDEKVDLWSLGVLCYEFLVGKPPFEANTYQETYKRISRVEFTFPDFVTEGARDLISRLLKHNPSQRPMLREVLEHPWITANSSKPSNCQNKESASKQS
How it was run: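 His-tagged full-length Aurora2 (0.02 μM, E. coli) phosphorylating His-tagged NuMA C-terminal fragment (0.5 μM) with 1 μM ATP plus [33P]-ATP, 30 min at 37 °C, pH 7.5 Tris buffer with MgCl2. Nickel-chelate scintillation read; percent inhibition versus no-compound control.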

[3] = target: T3, human IGF1R cytoplasmic domain (Homo sapiens, UniProt P08069); assay: IGF1R autophosphorylation inhibition, time resolved fluorescence (HTRF) assay; conditions: 10 μM; read-out: IGF1R % inhib at 10 μM
T3 construct: The human IGF1R cytoplasmic domain was cloned; made in house; host or cells: SF21 insect cells (baculovirus)
T3 sequence (P08069 960-1367 limits assumed): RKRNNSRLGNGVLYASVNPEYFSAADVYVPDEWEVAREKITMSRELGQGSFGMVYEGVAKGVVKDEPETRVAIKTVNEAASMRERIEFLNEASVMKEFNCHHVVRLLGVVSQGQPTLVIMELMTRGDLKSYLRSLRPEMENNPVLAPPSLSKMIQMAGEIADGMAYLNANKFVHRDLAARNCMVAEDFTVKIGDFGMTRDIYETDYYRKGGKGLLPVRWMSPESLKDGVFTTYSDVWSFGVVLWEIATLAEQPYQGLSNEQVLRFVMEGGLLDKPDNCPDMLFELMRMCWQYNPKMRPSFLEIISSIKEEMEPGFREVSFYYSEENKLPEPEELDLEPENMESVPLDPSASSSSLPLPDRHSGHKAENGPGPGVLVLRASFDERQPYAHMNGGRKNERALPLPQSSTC
Method: The inhibitory activity of the compounds on IGF1R is determined by measuring the inhibition of the autophosphorylation of the enzyme using a time resolved fluorescence (HTRF) assay.
The human IGF1R cytoplasmic domain was cloned, as a fusion with glutathione S-transferase (GST), into the baculovirus expression vector pFastBac-GST. The protein was expressed in SF21 cells and purified to approximately 80% homogeneity.
The kinase activity was determined by incubating the enzyme with various concentrations of test compound in a 50 mM Hepes buffer, pH 7.5, containing 5 mM MnCl2, 50 mM NaCl, 3% glycerol, 0.025% Tween […] of ATP. The enzyme reaction is stopped by adding 100 mM Hepes buffer, pH 7.0, containing 0.4 M KF, 133 mM EDTA and 0.1% BSA containing an anti-GST antibody labeled with XL665 and an antiphosphotyrosine antibody conjugated to europium cryptate (Eu-K). The characteristics of the two fluorophores, XL-665 and Eu-K, are available in G. Mathis et al., Anticancer Research, 1997, 17, pages 3011-3014. The transfer of energy from the excited europium cryptate to the acceptor XL665 is proportional to the degree of autophosphorylation of IGF1R. The long-lived signal specific for XL-665 is measured in a Victor analyzer plate counter (Perkin-elmer). The inhibition of the IGF1R autophosphorylation activity with compounds of the invention is expressed as percentage inhibition compared to a control whose activity is measured in the absence of test compound.

[4] = target: T4, human KDR enzyme (Homo sapiens, UniProt P35968); assay: KDR substrate (PLCγ) phosphorylation, scintillation assay; conditions: 10 μM; read-out: KDR % inhib at 10 μM
T4 construct: The cytoplasmic domain of the human KDR enzyme; GST; made in house; host or cells: SF21 insect cells (baculovirus)
T4 sequence (P35968 786-1356 limits assumed): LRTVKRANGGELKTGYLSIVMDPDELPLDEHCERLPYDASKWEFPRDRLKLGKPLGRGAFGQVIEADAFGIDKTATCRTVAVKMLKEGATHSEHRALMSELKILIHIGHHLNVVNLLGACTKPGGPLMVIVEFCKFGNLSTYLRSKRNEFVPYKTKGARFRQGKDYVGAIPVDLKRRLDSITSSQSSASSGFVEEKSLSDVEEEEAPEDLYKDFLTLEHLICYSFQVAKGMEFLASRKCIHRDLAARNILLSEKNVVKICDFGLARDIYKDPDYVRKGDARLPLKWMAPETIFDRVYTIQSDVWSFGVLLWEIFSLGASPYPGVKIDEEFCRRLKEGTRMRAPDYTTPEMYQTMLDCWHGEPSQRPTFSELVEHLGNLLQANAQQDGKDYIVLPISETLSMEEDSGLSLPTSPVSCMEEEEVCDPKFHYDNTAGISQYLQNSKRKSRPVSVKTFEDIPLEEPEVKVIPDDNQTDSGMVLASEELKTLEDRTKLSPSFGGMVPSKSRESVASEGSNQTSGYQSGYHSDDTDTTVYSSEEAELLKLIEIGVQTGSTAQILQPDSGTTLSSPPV
How it was run: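 GST-fused human KDR cytoplasmic domain from SF21 cells (about 60% pure, 100 ng) phosphorylated 2 μg of GST-PLCγ SH2-SH3 fragment. The trigger solution held γ33P-ATP with 2 μM cold ATP, in MOPS buffer pH 7.2 with Mg2+, Mn2+, vanadate and NaF. Reactions ran 1 h at 37 °C, were stopped with EDTA and counted by scintillation; results are % inhibition versus the no-compound control.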

inhibition at 10 µM [1] [%]	inhibition at 10 µM [2] [%]	inhibition at 10 µM [3] [%]	inhibition at 10 µM [4] [%]	SMILES
72	86	65	47	CS(=O)(=O)c1ccccc1S(=O)(=O)Nc1ccc2[nH]nc(-c3ccc(Br)cc3F)c2c1 [Example 212, N-[3-(4-Bromo-2-fluoro-phenyl)-1H-indazol-5-yl]-2-methanesulfonyl-benzenesulfonamide]
94	84	50	60	CS(=O)(=O)c1ccccc1S(=O)(=O)Nc1ccc2[nH]nc(-c3cccc(F)c3F)c2c1 [Example 221, N-[3-(2,3-Difluorophenyl)-1H-indazol-5-yl]-2-methanesulfonyl-benzenesulfonamide]
6	71	40	70	O=C(NCc1ccc(S(=O)(=O)Nc2ccc3[nH]nc(-c4ccccc4)c3c2)s1)c1ccccc1 [Example 140, N-[5-(3-Phenyl-1H-indazol-5-ylsulfamoyl)thiophen-2-ylmethyl]benzamide]
15	68	20	37	CS(=O)(=O)c1ccccc1S(=O)(=O)Nc1ccc2[nH]nc(-c3ccc(I)cc3)c2c1 [Example 218, N-[3-(4-Iodophenyl)-1H-indazol-5-yl]-2-methanesulfonyl-benzenesulfonamide]
71	49	25	28	Cc1ccccc1-c1n[nH]c2ccc(NS(=O)(=O)c3ccccc3S(C)(=O)=O)cc12 [Example 105, 2-Methylsulfonyl-N-(3-o-tolyl-1H-indazol-5-yl)benzenesulfonamide]
58	85	61	48	CS(=O)(=O)c1ccccc1S(=O)(=O)Nc1ccc2[nH]nc(-c3ccc(OC(F)(F)F)cc3)c2c1 [Example 206, N-[3-(4-Trifluoromethoxy-phenyl)-1H-indazol-5-yl]-2-methanesulfonyl-benzenesulfonamide]
66	88	83	70	CS(=O)(=O)c1ccccc1S(=O)(=O)Nc1ccc2[nH]nc(-c3ccc(C(F)(F)F)cc3)c2c1 [Example 176, N-[3-(4-Trifluoromethylphenyl)-1H-indazol-5-yl]-2-methanesulfonyl-benzenesulfonamide]
95	87	50	49	CS(=O)(=O)c1ccccc1S(=O)(=O)Nc1ccc2[nH]nc(-c3cc(Cl)cc(Cl)c3)c2c1 [Example 168, N-[3-(3,5-Dichlorophenyl)-1H-indazol-5-yl]-2-methanesulfonyl-benzenesulfonamide]
31	70	79	78	Cc1cc(C)c(S(=O)(=O)Nc2ccc3[nH]nc(-c4ccccc4)c3c2)c(C)c1 [Example 115, 2,4,6-Trimethyl-N-(3-phenyl-1H-indazol-5-yl)-benzenesulfonamide]
100	95	95	55	CS(=O)(=O)c1ccccc1S(=O)(=O)Nc1ccc2[nH]nc(NC(=O)c3ccccc3)c2c1 [Example 45, N-[5-(2-Methylsulfonylbenzenesulfonylamino)-1H-indazol-3-yl]benzamide]
0	80	96	8	CS(=O)(=O)c1ccccc1S(=O)(=O)Nc1ccc2[nH]nc(C(=O)NC3CCCCC3)c2c1 [Example 29, N-Cyclohexyl-5-(2-methylsulfonylbenzenesulfonylamino)-1H-indazole-3-carboxamide]
